Measurements from PMC8111572 (Inorganic chemistry, 2020).
Read-outs that look alike come from different tables or passages of the source. Marks after values point to notes of the source that are not given here. Values belong to the compound of their own block, whether it stands above or below them.

How the values were obtained:
[1] = cited from earlier work
[2] = cited from earlier work; remark: listed apart in the source
[3] = protonation constant, cited from earlier work
[4] = −log [M]free when [M]total = 10^−6 M and [L]total = 10^−5 M at pH = 7.4; cited from earlier work
[5] = −log [M]free when [M]total = 10^−6 M and [L]total = 10^−5 M at pH = 7.4; cited from earlier work; remark: listed apart in the source
[6] = Ligand protonation constants by potentiometric titration; assay type: physicochemical; conditions: protonation constant, 25.0 °C, 0.1 M KCl
[7] = pLa value; assay type: binding; conditions: −log [M]free when [M]total = 10^−6 M and [L]total = 10^−5 M at pH = 7.4; calculated (Table S1)
[8] = pLu value; assay type: binding; conditions: −log [M]free when [M]total = 10^−6 M and [L]total = 10^−5 M at pH = 7.4; calculated (Table S1)

SMILES: Cc1cccc(C)n1 [2,6-dimethylpyridinium cation]
- pKa [1]: 6.7

SMILES: O=C([O-])CN1CCN(CC(=O)[O-])CCN(CC(=O)[O-])CCN(CC(=O)[O-])CC1.[Gd+3] [Gd-DOTA]
- kex298 (water exchange rate constant) [2]: 4.1e+06 s⁻¹

SMILES: O=C([O-])CN(CCN(CC(=O)[O-])CC(=O)O)CCN(CC(=O)[O-])CC(=O)O.[Gd+3] [Gd-DTPA]
- kex298 (water exchange rate constant) [2]: 3.3e+06 s⁻¹

SMILES: O=C(O)CN(CCOCCN(CC(=O)O)CC(=O)O)CC(=O)O [OBETA]
- log K1 ([3]; 0.1 M KCl): 9.34^e
- log K2 ([3]; 0.1 M KCl): 8.62^e
- log K3 ([3]; 0.1 M KCl): 3.19^e
- log K4 ([3]; 0.1 M KCl): 2.19^e
- log K5 ([3]; 0.1 M KCl): 1.77^e

SMILES: O=C(O)CN(CCN(CC(=O)O)Cc1cccc(C(=O)O)n1)Cc1cccc(C(=O)O)n1 [Octapa]
- log K1 ([3]; 0.15 M NaCl): 8.52
- log K2 ([3]; 0.15 M NaCl): 5.40
- log K3 ([3]; 0.15 M NaCl): 3.65
- log K4 ([3]; 0.15 M NaCl): 2.97
- log K5 ([3]; 0.15 M NaCl): 1.66
- log K1 ([3]; 0.16 M NaCl): 8.58
- log K2 ([3]; 0.16 M NaCl): 5.43
- log K3 ([3]; 0.16 M NaCl): 3.75
- log K4 ([3]; 0.16 M NaCl): 3.08
- log K5 ([3]; 0.16 M NaCl): 2.21
- pLa [4]: 19.7
- pLu [5]: 19.8

- log K1 [6]: 8.72(1)
- log K2 [6]: 7.81(2)
- log K3 [6]: 3.09(2)
- log K4 [6]: 2.35(4)
SMILES: CN(CCOCCN(C)Cc1cccc(C(=O)O)n1)Cc1cccc(C(=O)O)n1 [OxyMepa, 6,6’-(((oxybis(ethane-2,1-diyl))bis(methylazanediyl))bis(methylene))dipicolinic acid]

- log K1 [6]: 8.47(4)
- log K2 [6]: 7.63(2)
- log K3 [6]: 3.66(4)
- log K4 [6]: 2.90(1)
- log K5 [6]: 1.77(12)
SMILES: O=C(O)CN(CCOCCN(CC(=O)O)Cc1cccc(C(=O)O)n1)Cc1cccc(C(=O)O)n1 [Oxyaapa, 6,6’-(((oxybis(ethane-2,1-diyl))bis((carboxymethyl)azanediyl))bis(methylene))dipicolinic acid]
- pLa [7]: 18.5
- pLu [8]: 21.1

SMILES: O=C(O)CN(Cc1cccc(CN(CC(=O)O)Cc2cccc(C(=O)O)n2)n1)Cc1cccc(C(=O)O)n1 [Pypa]
- pLa [4]: 19.9
- pLu [5]: 22.6

SMILES: O=C(O)c1ccccn1 [pyridinium-2-carboxylic acid]
- pKa [1]: 5.39
